Measurements: US20250170112A1, “ADENOSINE LIGANDS FOR THE TREATMENT OF NEUROLOGICAL DISORDERS” (Lucy Therapeutics, Inc., priority 2022, published 2025)

Tests used:
human A2B = biological target: T1, human A2B (Homo sapiens, UniProt P29275); experiment: cAMP HTRF assay for Gs coupled receptor, agonist test; assay type: cell-based; conditions: agonist activity; HEK293 cells expressing recombinant human A2B; read-out: A2BAR EC50
T1 construct: expressed in transfected cells; host or cells: HEK293
T1 sequence (P29275 1-332): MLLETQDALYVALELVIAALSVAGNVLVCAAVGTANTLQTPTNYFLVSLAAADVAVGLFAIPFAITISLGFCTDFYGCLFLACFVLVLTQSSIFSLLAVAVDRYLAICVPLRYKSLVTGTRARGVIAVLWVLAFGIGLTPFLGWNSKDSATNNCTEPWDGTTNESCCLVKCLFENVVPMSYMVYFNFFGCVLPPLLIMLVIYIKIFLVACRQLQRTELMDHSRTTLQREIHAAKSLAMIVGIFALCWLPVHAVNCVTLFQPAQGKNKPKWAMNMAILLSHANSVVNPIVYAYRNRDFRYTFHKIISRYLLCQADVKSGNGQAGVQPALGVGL
Experimental: (§1) SPA ^35S-GTPγS experiments were conducted with Epics Therapeutics membrane preparations. cAMP HTRF assays were conducted with recombinant cell lines.
Dose response curves are performed in parallel with the reference compounds.
For agonist test (96 well): 12 μL of cells are mixed with 12 μL of the test compound at increasing concentrations and then incubated 30 min at room temperature. After addition of the lysis buffer containing cAMP-d2 and anti-cAMP cryptate detection reagents, plates are incubated 1 hour incubation at room temperature, and fluorescence ratios are measured according to the manufacturer specification, with the HTRF kit.

[1] = biological target: T2, human Adenosine A1 receptor (Homo sapiens, UniProt P30542); experiment: GTPγS scintillation proximity assay, agonist testing; assay type: biochemical; conditions: agonist activity; membrane extracts of CHO-K1 cells expressing recombinant human A1; read-out: A1AR EC50
T2 construct: host or cells: CHO-K1
T2 sequence (P30542 1-326): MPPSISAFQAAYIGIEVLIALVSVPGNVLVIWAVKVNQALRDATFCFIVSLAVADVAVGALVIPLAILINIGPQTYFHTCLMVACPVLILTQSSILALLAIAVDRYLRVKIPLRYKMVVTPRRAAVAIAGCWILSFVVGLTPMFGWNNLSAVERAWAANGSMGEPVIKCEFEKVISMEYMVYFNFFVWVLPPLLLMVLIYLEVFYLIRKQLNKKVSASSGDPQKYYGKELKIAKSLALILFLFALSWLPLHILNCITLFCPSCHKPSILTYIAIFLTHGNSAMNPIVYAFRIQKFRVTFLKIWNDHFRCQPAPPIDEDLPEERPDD
Experimental: as §1
• Assay buffer: 20 mM HEPES pH 7.4; 100 mM NaCl, 10 μg/mL saponin, MgCl2 at optimized concentration for the specific receptor. • Membranes: membrane extracts prepared from CHO-K1 cells expressing recombinant human Adenosine A1 receptor, thawed on ice, diluted in assay buffer and kept on ice. • GDP: diluted in assay buffer at the optimized concentration for the specific receptor Beads: PVT-WGA (Perkin Elmer, RPNQ001), diluted in assay buffer at 50 mg/mL (0.5 mg/10 μL) • GTPγ^35S: (Perkin Elmer, NEG030X), diluted in assay buffer for a final 0.1 nM assay concentration
Protocol for agonist testing: membranes are mixed with GDP (volume:volume). In parallel, GTPγ[^35S] is mixed with the beads (volume:volume) just before starting the reaction. The following reagents are successively added in the wells of an Optiplate (Perkin Elmer): 50 μL of test or reference ligand, 25 μL of the membranes:GDP mix, and 25 μL of the GTPγ[^35S]:beads mix. The plates are covered with a top seal, mixed on an orbital shaker for 2 min, and then incubated for 1 hour at room temperature. Then the plates are centrifuged for 10 min at 2000 rpm, incubated at room temperature and counted for 30 sec/well with a PerkinElmer TopCount™ reader. • Conditions for the GTPγS scintillation proximity assay are shown in Table 14.

Compound | EC50 (human A2B) | EC50 [1]
N#Cc1c(SCc2cccnc2)nc(N2CC(F)C2)c(C#N)c1-c1ccc(OC2COC2)cc1 [Compound 271] | 116 nM | 30.3 nM
N#Cc1c(N)nc(SCc2cccc(OC(F)(F)F)c2)c(C#N)c1-c1ccc(OC2COC2)cc1 [Compound 29] | 6120 nM | 79 nM
N#Cc1c(N)nc(OCCC2COC2)c(C#N)c1-c1ccc(OC2COC2)cc1 [Compound 307] | > 10000 nM | > 10000 nM
COc1nc(SCC2COC2)c(C#N)c(-c2ccc(OC3COC3)cc2)c1C#N [Compound 294, 2-Methoxy-6-((oxetan-3-ylmethyl)thio)-4-(4-(oxetan-3-yloxy)phenyl)pyridine-3,5-dicarbonitrile] | > 10000 nM | 25.2 nM
N#Cc1c(SCCC(N)=O)nc(N2CCCC2)c(C#N)c1-c1ccc(OCCO)cc1 [Compound 96] | 97 nM | > 10000 nM
CNc1nc(OCC2COC2)c(C#N)c(-c2ccc(OC3COC3)cc2)c1C#N [Compound 288] | > 10000 nM | 308 nM
N#Cc1c(N)nc(CCc2cccnc2)c(C#N)c1-c1ccc(OCCO)cc1 [Compound 125] | 468 nM | > 10000 nM
CC(C)(O)COc1ccc(-c2c(C#N)c(N)nc(SCC3COC3)c2C#N)cc1 [Compound 317] | > 10000 nM | 88.7 nM
N#Cc1c(N)nc(SCc2nc3cc(Cl)ccc3s2)c(C#N)c1-c1ccc(OCCO)cc1 [Compound 208] | 98 nM | 500 nM
N#Cc1c(N)nc(NCc2cccnc2)c(C#N)c1-c1ccc(OCCO)cc1 [Compound 161] | 159 nM | 368 nM
COCCOc1ccc(-c2c(C#N)c(SCc3cncnc3)nc(N3CC(F)C3)c2C#N)cc1 [Compound 249] | > 10000 nM | > 10000 nM
CC(O)COc1ccc(-c2c(C#N)c(N)nc(SCC3COC3)c2C#N)cc1 (stereo not shown) [Compound 316] | 305 nM | 10.8 nM
CC(=O)NCCSc1nc(N)c(C#N)c(-c2ccc(OCCO)cc2)c1C#N [Compound 119] | 925 nM | 161 nM
COCCOc1ccc(-c2c(C#N)cnc(SCCO)c2C#N)cc1 [Compound 94] | > 10000 nM | 1010 nM
N#Cc1c(SCc2cccnn2)nc(C2CC2)c(C#N)c1-c1ccc(OCCOC(F)F)cc1 [Compound 239] | > 10000 nM | 840 nM
N#Cc1c(N)nc(SC2CCOCC2)c(C#N)c1-c1ccc(OC2COC2)cc1 [Compound 31] | > 10000 nM | 596 nM

Compound | EC50 (human A2B) | EC50 [1]
Cc1ncccc1CSc1nc(N2CCC2)c(C#N)c(-c2ccc(OCCO)cc2)c1C#N [Compound 77] | 2230 nM | > 10000 nM
CN(Cc1cccnc1)c1nc(N)c(C#N)c(-c2ccc(OCCO)cc2)c1C#N [Compound 160] | 56 nM | 130 nM
CC(O)COc1ccc(-c2c(C#N)c(SCc3cccnc3)nc(N3CCC3)c2C#N)cc1 (stereo not shown) [Compound 53, 2-(azetidin-1-yl)-4-[4-(2-hydroxypropoxy)phenyl]-6-(3-pyridylmethylsulfanyl)-pyridine-3,5-dicarbonitrile] | 0.7 nM | 7.2 nM
Cc1ccc(CSc2nc(N3CCC3)c(C#N)c(-c3ccc(OCCO)cc3)c2C#N)c(C)n1 [Compound 74] | 8100 nM | > 10000 nM
N#Cc1c(N)nc(SCC2COC2)c(C#N)c1-c1ccc(OC2COC2)cc1 [Compound 25] | > 10000 nM | 1.1 nM
N#Cc1c(N)nc(SCC2CCO2)c(C#N)c1-c1ccc(OCCO)cc1 (stereo not shown) [Compound 110] | 177 nM | 253 nM
N#Cc1c(N)nc(OCC2CCCCO2)c(C#N)c1-c1ccc(OC2COC2)cc1 (stereo not shown) [Compound 299] | > 10000 nM | > 10000 nM
N#Cc1c(SCc2cccnn2)nc(N2CC(F)C2)c(C#N)c1-c1ccc(OCCOC(F)F)cc1 [Compound 241] | > 10000 nM | 73.2 nM
N#Cc1c(N)nc(OC[C@H]2CCOC2)c(C#N)c1-c1ccc(OC2COC2)cc1 [Compound 290] | > 10000 nM | 265 nM
CC(C)(O)COc1ccc(-c2c(C#N)c(SCc3cccnc3)nc(N3CCC3)c2C#N)cc1 [Compound 49] | 65 nM | 311 nM
COCCOc1ccc(-c2c(C#N)c(SCc3cncnc3)nc(N3CCC3)c2C#N)cc1 [Compound 30] | > 10000 nM | 3090 nM
N#Cc1c(N)nc(OCc2cccnc2)c(C#N)c1-c1ccc(OCCO)cc1 [Compound 159] | 3.3 nM | 41 nM
N#Cc1c(SCc2cncnc2)nc(N2CCC2)c(C#N)c1-c1ccc(OCCO)cc1 [Compound 23] | 420 nM | 100 nM
CNc1nc(SCC2COC2)c(C#N)c(-c2ccc(OC3COC3)cc2)c1C#N [Compound 314] | > 10000 nM | 5.16 nM
N#Cc1c(N)nc(SCc2cccnn2)c(C#N)c1-c1ccc(OC2COC2)cc1 [Compound 234] | 2.02 nM | 1.22 nM

Results, then the compound that gave them:

EC50 (human A2B) | EC50 [1] | Compound
> 10000 nM | 245 nM | CCOCCSc1nc(N)c(C#N)c(-c2ccc(OCCOC)cc2)c1C#N [Compound 34]
> 10000 nM | 276 nM | COCCOc1ccc(-c2c(C#N)c(N)nc(S[C@H](C)c3cccnc3)c2C#N)cc1 [Compound 248]
5.1 nM | 38 nM | CC(C)(O)COc1ccc(-c2c(C#N)c(N)nc(SCc3cccnc3)c2C#N)cc1 [Compound 51]
> 10000 nM | 98.8 nM | COCCOc1ccc(-c2c(C#N)c(SCc3cccnc3)nc(N3CC(F)(F)C3)c2C#N)cc1 [Compound 276]
> 10000 nM | 7600 nM | COCCOc1ccc(-c2c(C#N)c(N)nc(SCc3ccc4c(c3)OCC4)c2C#N)cc1 [Compound 16]
> 10000 nM | 139 nM | COCCOc1ccc(-c2c(C#N)c(N)nc(SCc3cccc(OC)c3)c2C#N)cc1 [Compound 37]
> 10000 nM | 80 nM | COCCOc1ccc(-c2c(C#N)c(N)nc(SCc3cncnc3)c2C#N)cc1 [Compound 198]
> 10000 nM | 7600 nM | COCCOc1ccc(-c2c(C#N)c(N)nc(SCc3cccc4c3CCO4)c2C#N)cc1 [Compound 212]
> 10000 nM | > 10000 nM | COCCOc1ccc(-c2c(C#N)c(N)nc(SCc3cccc4[nH]ncc34)c2C#N)cc1 [Compound 214]
13.4 nM | > 10000 nM | N#Cc1c(N)nc(SCc2cccc3[nH]cnc23)c(C#N)c1-c1ccc(OCCO)cc1 [Compound 5]
> 10000 nM | > 10000 nM | COCCOc1ccc(-c2c(C#N)c(OC)nc(SCc3cccnc3)c2C#N)cc1 [Compound 283]
> 10000 nM | 1000 nM | COCCOc1ccc(-c2c(C#N)c(N)nc(SCCNC(C)=O)c2C#N)cc1 [Compound 120]
> 10000 nM | 238 nM | COCCOc1ccc(-c2c(C#N)c(N)nc(SCc3cccc(OC(F)(F)F)c3)c2C#N)cc1 [Compound 35]
5360 nM | 1.62 nM | N#Cc1c(N)nc(SCc2cccnn2)c(C#N)c1-c1ccc(OCCOC(F)F)cc1 [Compound 237]
> 10000 nM | > 10000 nM | CNc1nc(SCc2cccnc2)c(C#N)c(-c2ccc(OCCOC)cc2)c1C#N [Compound 284]
495 nM | 981 nM | N#Cc1c(N)nc(SCc2c[nH]c3ccccc23)c(C#N)c1-c1ccc(OCCO)cc1 [Compound 206]
0.06 nM | 1.5 nM | N#Cc1c(N)nc(SCc2cccnn2)c(C#N)c1-c1ccc(OCCO)cc1 [Compound 178]
> 10000 nM | 92 nM | COCCOc1ccc(-c2c(C#N)c(N)nc(SCc3ccccc3)c2C#N)cc1 [Compound 152]
0.5 nM | 8.1 nM | N#Cc1c(N)nc(SCc2ccncc2)c(C#N)c1-c1ccc(OCCO)cc1 [Compound 174]
